Results: US6613762B2, “Gambogic acid, analogs and derivatives as activators of caspases and inducers of apoptosis” (Cytovia, Inc., priority 1999, dated 2003)
Read-outs that look alike come from different tables or passages of the source.

Key:
[1] = tested on: caspase cascade, PC-3 cells; assay: Known antineoplastic compounds as caspase cascade activators (Example 92), PC-3; format: cell-based, human; conditions: 10 μM final, 24 h; ratio of net RFU to control; ratio around 1 = not an efficient activator
Method: (§8) An aliquot of 45 μl of cells was added to a well of a 96-well microtiter plate containing 5 μl of a 10% DMSO in RPMI-1640 media solution containing 100 μM of test compounds (10 μM final). An aliquot of 45 μl of cells was added to a well of a 96-well microtiter plate containing 5 μl of a 10% DMSO in RPMI-1640 media solution without test compound as the control sample. The samples were mixed by agitation and then incubated at 37° C. for 24 h in a 5% CO2-95% humidity incubator. After incubation, the samples were removed from the incubator and 50 μl of a solution containing 20 μM of N-(Ac-DEVD)-N′-ethoxycarbonyl-R110 fluorogenic substrate (SEQ ID NO:1) (Cytovia, Inc.), 20% sucrose (Sigma), 20 mM DTT (Sigma), 200 mM NaCl (Sigma), 40 mM Na PIPES buffer pH 7.2 (Sigma), and 500 μg/ml lysolecithin (Calbiochem) was added. The samples were mixed by agitation and incubated for 3 h at room temperature. Using a fluorescent plate reader (Model 1420 Wallac Instruments), an initial reading (T=0) was made approximately 1-2 min. after addition of the substrate solution, employing excitation at 485 nm and emission at 530 nm, to determine the background fluorescence of the control sample. After the 3 h incubation, the samples were read for fluorescence as above (T=3 h).
(§9) The Relative Fluorescence Unit values (RFU) were used to calculate the sample readings as follows:
(§10) The activity in caspase cascade activation was determined by the ratio of the net RFU value for test compounds to that of control samples.

[2] = tested on: caspase cascade, T-47D cells; assay: Known antineoplastic compounds as caspase cascade activators (Example 92), T-47D; format: cell-based, human; conditions: 10 μM final, 24 h; ratio of net RFU to control; ratio around 1 = not an efficient activator
Method: as §8, §9, §10

KB-V1 cell line = conditions: cited from earlier work
KB cell line = conditions: cited from earlier work
[3] = tested on: caspase cascade, human prostate cancer cell line PC-3; assay: Caspase cascade activation assay (Example 90), PC-3; format: cell-based; conditions: 24 h incubation; for EC50: Homo sapiens, sigmoidal dose-response, read-out: PC-3 EC50 (caspase activation potency)
Method: (§1) Human breast cancer cell lines T-47D and ZR-75-1, human prostate cancer cell line PC-3, human leukemia cancer cell line HL-60 and human non-transformed fibroblast cell line MRC-5 cells were grown according to media component mixtures designated by The American Type Culture Collection+10% FCS (Life Technologies, Inc.), in a 5% CO2-95% humidity incubator at 37° C. T-47D, ZR-75-1 and PC-3 cells were maintained at a cell density between 30 and 80% confluency and for HL-60 at a cell density of 0.1 to 0.6×10^6 cells/m. Cells were harvested at 600× g and resuspended at 0.65×10^6 cells/ml into appropriate media +10% FCS. […] The samples were mixed by agitation and incubated at room temperature.
(§2) The EC50 (nM) was determined by a sigmoidal dose-response calculation (Prism 2.0, GraphPad Software Inc.).

[4] = tested on: caspase cascade, human leukemia cancer cell line HL-60; assay: Caspase cascade activation assay (Example 90), HL-60; format: cell-based; conditions: Homo sapiens, HL-60; 24 h incubation; sigmoidal dose-response; read-out: HL-60 EC50 (caspase activation potency)
Method: as §1, §2

MRC-5 cells = assay: Inhibition of cell proliferation (GI50) and cell death (LC50), MRC-5; format: cell-based; conditions: Homo sapiens, MRC5; MRC-5, 48 h; read-out: GI50 (dose for 50% inhibition of cell proliferation)
Method: (§3) T47D, ZR-75-1, PC-3, human prostate cancer cell line DU-145, human non-small cell lung cancer cell line A-549, human small cell lung cancer cell line SHP-77, HL-60 and MRC-5 cells were grown and harvested as in Example 90. […] The samples were mixed by agitation and incubated at 37° C. for 2-4 h in a 5% CO2-95% humidity incubator. […] This determines the possible background absorbance of the test compounds. No absorbance for gambogic acid or its analogs or derivatives was found at 490 nm. After the 2-4 h incubation, the samples were read for absorbance as above (ATest).
(§4) Baseline for GI50 (dose for 50% inhibition of cell proliferation) and LC50 (dose for 50% cell death) of initial cell numbers was determined by adding an aliquot of 90 μl of cells or 90 μl of media, respectively, to wells of a 96-well microtiter plate containing 10 μl of a 10% DMSO in RPMI-1640 media solution. […] The samples were mixed by agitation and incubated at 37° C. for 2-4 h in a 5% CO2-95% humidity incubator. Absorbance was read as above, (AT=0) defining absorbance for initial cell number used as baseline in GI50 determinations and (Amin) defining absorbance for media alone used as baseline in LC50 determinations.
(§5) GI50 (dose for 50% inhibition of cell proliferation)
(§6) LC50 (dose for 50% cell death)
(§7) 50=100×[(ATest−Amin)/(AT=0−Amin)]

[5] = as above; format: cell-based; conditions: human
Method: as §3, §4, §5, §6, §7

[6] = tested on: caspase cascade, human breast cancer cell line ZR-75-1; assay: Caspase cascade activation assay (Example 90), ZR-75-1; format: cell-based; conditions: Homo sapiens, ZR-75-1; 24 h incubation; sigmoidal dose-response; read-out: ZR-75-1 EC50 (caspase activation potency)
Method: as §1, §2

T-47D cells = assay: Inhibition of cell proliferation (GI50) and cell death (LC50), T-47D; format: cell-based; conditions: Homo sapiens, T47D, 48 h; for GI50: read-out: GI50 (dose for 50% inhibition of cell proliferation); for CC50: read-out: LC50 (dose for 50% cell death)
Method: as §3, §4, §5, §6, §7

[7] = tested on: caspase cascade, human breast cancer cell line T-47D; assay: Caspase cascade activation assay (Example 90), T-47D; format: cell-based; conditions: 24 h incubation; for EC50: Homo sapiens, T47D, sigmoidal dose-response, read-out: T-47D EC50 (caspase activation potency)
Method: as §1, §2

PC-3 cells = assay: Inhibition of cell proliferation (GI50) and cell death (LC50), PC-3; format: cell-based
Method: as §3, §4, §5, §6, §7

[8] = tested on: human prostate cancer cell line DU-145; assay: Inhibition of cell proliferation (GI50) and cell death (LC50), DU-145; format: cell-based
Method: as §3, §4, §5, §6, §7

caspase cascade = assay: Caspase cascade activation assay (Example 90), MRC-5; format: cell-based, human; conditions: human
Method: as §1, §2

HL-60 cells = assay: Inhibition of cell proliferation (GI50) and cell death (LC50), HL-60; format: cell-based; conditions: Homo sapiens, HL-60, 48 h; for CC50: read-out: LC50 (dose for 50% cell death); for GI50: read-out: GI50 (dose for 50% inhibition of cell proliferation)
Method: as §3, §4, §5, §6, §7

[9] = tested on: human small cell lung cancer cell line SHP-77; assay: Inhibition of cell proliferation (GI50) and cell death (LC50), SHP-77; format: cell-based; conditions: Homo sapiens; for CC50: SHP77, 48 h, read-out: LC50 (dose for 50% cell death); for GI50: SHP77, SHP-77, 48 h, read-out: GI50 (dose for 50% inhibition of cell proliferation)
Method: as §3, §4, §5, §6, §7

[10] = tested on: human non-small cell lung cancer cell line A-549; assay: Inhibition of cell proliferation (GI50) and cell death (LC50), A-549; format: cell-based; conditions: Homo sapiens; for CC50: A549, 48 h, read-out: LC50 (dose for 50% cell death); for GI50: A549, A-549, 48 h, read-out: GI50 (dose for 50% inhibition of cell proliferation)
Method: as §3, §4, §5, §6, §7

ZR-75-1 cells = assay: Inhibition of cell proliferation (GI50) and cell death (LC50), ZR-75-1; format: cell-based; conditions: Homo sapiens, ZR-75-1, 48 h; for CC50: read-out: LC50 (dose for 50% cell death); for GI50: read-out: GI50 (dose for 50% inhibition of cell proliferation)
Method: as §3, §4, §5, §6, §7

[11] = reported by Lin et al., Magn. Reson. Chem. 31:340-347 (1993)
[12] = Homo sapiens, PC-3, 48 h; read-out: GI50 (dose for 50% inhibition of cell proliferation)
[13] = Homo sapiens, DU-145, 48 h; read-out: GI50 (dose for 50% inhibition of cell proliferation)
[14] = ratio of net RFU of test compound to control, 0.16 to 10 μM
[15] = Homo sapiens, PC-3, 48 h, read-out: LC50 (dose for 50% cell death)
[16] = Homo sapiens, DU-145, 48 h, read-out: LC50 (dose for 50% cell death)

CC(=O)O[C@H]1C(=O)[C@@]2(C)[C@H]([C@H](OC(=O)c3ccccc3)[C@]3(O)C[C@H](OC(=O)[C@H](O)[C@@H](NC(=O)c4ccccc4)c4ccccc4)C(C)=C1C3(C)C)[C@]1(OC(C)=O)CO[C@@H]1C[C@@H]2O [Taxol]
Caspase cascade activation ratio, PC-3 [1]: 0.7
Caspase cascade activation ratio, T-47D [2]: 0.9

COc1cccc2c1C(=O)c1c(O)c3c(c(O)c1C2=O)C[C@@](O)(C(=O)CO)C[C@@H]3O[C@H]1C[C@H](N)[C@H](O)[C@H](C)O1 [Doxorubicin]
Caspase cascade activation ratio, PC-3 [1]: 1.1
Caspase cascade activation ratio, T-47D [2]: 1.3

CN(Cc1cnc2nc(N)nc(N)c2n1)c1ccc(C(=O)N[C@@H](CCC(=O)O)C(=O)O)cc1 [Methotrexate]
Caspase cascade activation ratio, PC-3 [1]: 0.7
Caspase cascade activation ratio, T-47D [2]: 0.8

CC[C@]1(O)C[C@@H]2CN(CCc3c([nH]c4ccccc34)[C@@](C(=O)OC)(c3cc4c(cc3OC)N(C)[C@H]3[C@@](O)(C(=O)OC)[C@H](OC(C)=O)[C@]5(CC)C=CCN6CC[C@]43[C@@H]65)C2)C1 [Vinblastine]
Caspase cascade activation ratio, PC-3 [1]: 0.8
Caspase cascade activation ratio, T-47D [2]: 0.9

CC(C)=CCCC1(C)C=Cc2c(O)c3c(c(CC=C(C)C)c2O1)OC12C(=CC4CC1C(C)(C)OC2(C/C=C(\C)C(=O)O)C4=O)C3=O (stereo not drawn) [Example 18, Isogambogic Acid]
Cytotoxicity against KB-V1 cell line (KB-V1 cell line): cytotoxic
Cytotoxicity against KB cell line (KB cell line): cytotoxic

O=c1[nH]cc(F)c(=O)[nH]1 [5-fluorouracil]
Caspase cascade activation ratio, PC-3 [1]: 0.7
Caspase cascade activation ratio, T-47D [2]: 0.8

CC(C)=CCc1c2c(c(O)c3c1OC14C(=CC5CC1C(C)(C)OC4(C/C=C(\C)CO)C5=O)C3=O)C=CC(C)(C)O2 (stereo not drawn) [isomorellinol, reference compound]
Cytotoxicity against KB-V1 cell line (KB-V1 cell line; [11]): cytotoxic
Cytotoxicity against KB cell line (KB cell line; [11]): cytotoxic

CC(C)=CCC/C(C)=C/Cc1c(O)c(CC=C(C)C)c2c(c1O)C(=O)C1=CC3CC4C(C)(C)OC(C/C=C(/C)C(=O)O)(C3=O)C14O2 (stereo not drawn) [Example 2, Gambogenic Acid]
EC50 [3]: 1350 nM
EC50 [4]: 340 nM
GI50 (MRC-5 cells): 500 nM
CC50 ([5]; MRC-5, 48 h, read-out: LC50 (dose for 50% cell death)): 5000 nM
EC50 [6]: 1160 nM
GI50 (T-47D cells; T-47D): 500 nM
CC50 (T-47D cells; T-47D): 500 nM
EC50 [7]: 310 nM
GI50 (PC-3 cells; [12]): 3000 nM
CC50 (PC-3 cells; Homo sapiens, PC-3, 48 h; read-out: LC50 (dose for 50% cell death)): 5000 nM
GI50 [8, 13]: 600 nM
CC50 ([8]; Homo sapiens, DU-145, 48 h; read-out: LC50 (dose for 50% cell death)): 5000 nM
EC50 (caspase cascade; 24 h incubation, sigmoidal dose-response, read-out: MRC-5 EC50 (caspase activation potency)): 1260 nM

CC(C)=CCC/C(C)=C/Cc1c(O)c(CC=C(C)C)c2c(c1O)C(=O)C1=CC3CC4C(C)(C)OC(C/C=C(/C)C=O)(C3=O)C14O2 (stereo not drawn) [Example 3, Gambogenin]
PC-3 Ratio (caspase activity) [3, 14]: 2.9
GI50 (MRC-5 cells): 3000 nM
CC50 at 48 h [5]: 5000 nM
CC50 (T-47D cells): 500 nM
GI50 (T-47D cells; T-47D): 500 nM
T-47D Ratio (caspase activity) [7, 14]: 7.0
CC50 (PC-3 cells; [15]): 5000 nM
GI50 (PC-3 cells; [12]): 5000 nM
CC50 [8, 16]: 5000 nM
GI50 [8, 13]: 2000 nM

COC(=O)/C(C)=C\CC12OC(C)(C)C3CC(C=C4C(=O)c5c(OC)c6c(c(CC=C(C)C)c5OC431)OC(C)(CCC=C(C)C)C=C6)C2=O (stereo not drawn) [Example 6, Methyl-6-methoxy-gambogate]
EC50 [3]: 5000 nM
GI50 (MRC-5 cells): 500 nM
CC50 at 48 h [5]: 500 nM
CC50 (T-47D cells): 80 nM
GI50 (T-47D cells; T-47D): 50 nM
CC50 (HL-60 cells): 800 nM
GI50 (HL-60 cells): 100 nM
EC50 [7]: 2800 nM
CC50 [9]: 500 nM
GI50 [9]: 500 nM
CC50 (PC-3 cells; [15]): 500 nM
GI50 (PC-3 cells; [12]): 500 nM
CC50 [8, 16]: 900 nM
GI50 [8, 13]: 500 nM
CC50 [10]: 900 nM
GI50 [10]: 500 nM
CC50 (ZR-75-1 cells): 500 nM
GI50 (ZR-75-1 cells): 400 nM

CC[C@@]1(O)C(=O)OCc2c1cc1n(c2=O)Cc2cc3ccccc3nc2-1 [Camptothecin]
Caspase cascade activation ratio, PC-3 [1]: 0.6
Caspase cascade activation ratio, T-47D [2]: 0.7

CC(C)=CCCC1(C)C=Cc2c(O)c3c(c(CC=C(C)C)c2O1)OC12C(=CC4CC1C(C)(C)OC2(C/C=C(/C)C(=O)N1CCN(C)CC1)C4=O)C3=O (stereo not drawn) [Example 9, Gambogyl (4-Methylpiperazine)]
EC50 [3]: 5900 nM
EC50 [6]: 2050 nM
EC50 [7]: 990 nM
EC50 at 24 h (caspase cascade): 1900 nM

CC(C)=CCCC1(C)C=Cc2c(O)c3c(c(CC=C(C)C)c2O1)OC12C(=CC4CC1C(C)(C)OC2(C/C=C(/C)C(=O)N1CCCCC1)C4=O)C3=O (stereo not drawn) [Example 5, Gambogyl Piperidine]
EC50 [3]: 900 nM
EC50 [4]: 200 nM
GI50 (MRC-5 cells): 800 nM
CC50 at 48 h [5]: 800 nM
EC50 [6]: 783 nM
CC50 (T-47D cells): 50 nM
GI50 (T-47D cells; T-47D): 50 nM
CC50 (HL-60 cells): 800 nM
GI50 (HL-60 cells): 100 nM
EC50 [7]: 210 nM
CC50 [9]: 500 nM
GI50 [9]: 500 nM
CC50 (PC-3 cells; [15]): 500 nM
GI50 (PC-3 cells; [12]): 500 nM
CC50 [8, 16]: 500 nM
GI50 [8, 13]: 500 nM
EC50 at 24 h (caspase cascade): 631 nM
CC50 [10]: 5000 nM
GI50 [10]: 800 nM
CC50 (ZR-75-1 cells): 500 nM
GI50 (ZR-75-1 cells): 300 nM

COc1cc([C@@H]2c3cc4c(cc3[C@@H](O[C@@H]3O[C@@H]5CO[C@@H](C)O[C@H]5[C@H](O)[C@H]3O)[C@H]3COC(=O)[C@H]23)OCO4)cc(OC)c1O [Etoposide]
Caspase cascade activation ratio, PC-3 [1]: 0.8
Caspase cascade activation ratio, T-47D [2]: 1.0
